# Assay results: ChEMBL document CHEMBL4622963, “Optimization of Nicotinamides as Potent and Selective IRAK4 Inhibitors with Efficacy in a Murine Model of Psoriasis” (ACS Med Chem Lett, 2020); call rule not given here
# Experiments:
# [1] = Permeability across apical to basolateral side in human Caco2 cells; conditions: Caco-2
# [2] = AUC in mouse at 2 mg/kg, iv administered as infusion measured up to 24 hrs by LC-MS analysis; format: ADME, organism-based; design: time < 24 hr, dose 2 mg/kg, route intravenous; conditions: in vivo
# [3] = organism: Homo sapiens; assay: Selectivity index, ratio of IC50 for recombinant N-terminal GST-tagged human cKit (544 to end residues) expressed in baculovirus infected Sf21 cells to IC50 for IRAK4 (unknown origin)
# [4] = Volume of distribution at steady state in mouse at 2 mg/kg, iv administered as infusion or 2 mg/kg, po via gavage measured up to 24 hrs by LC-MS analysis; format: ADME, organism-based; conditions: in vivo, read-out: Vdss
# [5] = target: TRAF2 and NCK-interacting protein kinase (Homo sapiens, UniProt Q9UKE5); assay: Inhibition of human wild type partial length TNIK (D4-K311 residues) expressed in bacterial expression system
# TRAF2 and NCK-interacting protein kinase, sequence (Q9UKE5 whole entry, the tested form may be a part): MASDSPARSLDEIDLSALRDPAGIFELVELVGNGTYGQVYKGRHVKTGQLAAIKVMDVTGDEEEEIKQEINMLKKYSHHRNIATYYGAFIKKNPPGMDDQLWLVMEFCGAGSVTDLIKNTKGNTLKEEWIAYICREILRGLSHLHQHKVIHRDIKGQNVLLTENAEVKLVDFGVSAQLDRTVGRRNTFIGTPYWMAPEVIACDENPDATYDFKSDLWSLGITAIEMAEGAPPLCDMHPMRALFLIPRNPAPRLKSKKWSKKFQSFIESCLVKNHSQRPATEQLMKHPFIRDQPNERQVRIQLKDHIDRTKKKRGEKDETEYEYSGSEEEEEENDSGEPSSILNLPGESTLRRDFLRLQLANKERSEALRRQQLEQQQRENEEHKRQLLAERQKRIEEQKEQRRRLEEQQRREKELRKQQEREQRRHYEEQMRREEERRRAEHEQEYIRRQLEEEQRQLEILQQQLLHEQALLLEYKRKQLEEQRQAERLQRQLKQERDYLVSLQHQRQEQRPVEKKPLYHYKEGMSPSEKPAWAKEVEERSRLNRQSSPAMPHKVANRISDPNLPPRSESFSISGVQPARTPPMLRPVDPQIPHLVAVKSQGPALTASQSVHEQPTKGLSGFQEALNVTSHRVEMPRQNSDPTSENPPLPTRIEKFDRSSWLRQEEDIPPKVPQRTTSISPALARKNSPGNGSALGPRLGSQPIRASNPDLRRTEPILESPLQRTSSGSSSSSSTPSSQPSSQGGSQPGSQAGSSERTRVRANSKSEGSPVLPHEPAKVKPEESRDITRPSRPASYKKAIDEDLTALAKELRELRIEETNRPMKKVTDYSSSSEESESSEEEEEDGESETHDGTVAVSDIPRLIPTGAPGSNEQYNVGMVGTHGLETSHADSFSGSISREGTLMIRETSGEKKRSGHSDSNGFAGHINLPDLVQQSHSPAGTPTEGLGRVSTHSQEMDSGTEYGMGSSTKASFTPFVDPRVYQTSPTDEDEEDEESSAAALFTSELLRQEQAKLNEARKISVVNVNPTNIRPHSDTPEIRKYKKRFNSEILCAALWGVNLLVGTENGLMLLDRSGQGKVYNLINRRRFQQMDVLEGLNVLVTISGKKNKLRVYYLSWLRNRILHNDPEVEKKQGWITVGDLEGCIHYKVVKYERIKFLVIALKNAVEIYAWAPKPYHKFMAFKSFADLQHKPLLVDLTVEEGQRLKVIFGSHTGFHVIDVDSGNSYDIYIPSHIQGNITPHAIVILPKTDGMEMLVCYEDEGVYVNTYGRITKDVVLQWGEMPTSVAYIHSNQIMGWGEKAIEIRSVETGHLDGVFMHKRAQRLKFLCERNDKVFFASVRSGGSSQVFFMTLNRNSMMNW
# [6] = target: Mast/stem cell growth factor receptor Kit (Homo sapiens, UniProt P10721, V559D); assay: Inhibition of recombinant human partial length cKit Val559Asp mutant expressed in bacterial expression system
# Mast/stem cell growth factor receptor Kit (Homo sapiens, UniProt P10721, V559D), sequence (P10721 26-976 V559D limits assumed): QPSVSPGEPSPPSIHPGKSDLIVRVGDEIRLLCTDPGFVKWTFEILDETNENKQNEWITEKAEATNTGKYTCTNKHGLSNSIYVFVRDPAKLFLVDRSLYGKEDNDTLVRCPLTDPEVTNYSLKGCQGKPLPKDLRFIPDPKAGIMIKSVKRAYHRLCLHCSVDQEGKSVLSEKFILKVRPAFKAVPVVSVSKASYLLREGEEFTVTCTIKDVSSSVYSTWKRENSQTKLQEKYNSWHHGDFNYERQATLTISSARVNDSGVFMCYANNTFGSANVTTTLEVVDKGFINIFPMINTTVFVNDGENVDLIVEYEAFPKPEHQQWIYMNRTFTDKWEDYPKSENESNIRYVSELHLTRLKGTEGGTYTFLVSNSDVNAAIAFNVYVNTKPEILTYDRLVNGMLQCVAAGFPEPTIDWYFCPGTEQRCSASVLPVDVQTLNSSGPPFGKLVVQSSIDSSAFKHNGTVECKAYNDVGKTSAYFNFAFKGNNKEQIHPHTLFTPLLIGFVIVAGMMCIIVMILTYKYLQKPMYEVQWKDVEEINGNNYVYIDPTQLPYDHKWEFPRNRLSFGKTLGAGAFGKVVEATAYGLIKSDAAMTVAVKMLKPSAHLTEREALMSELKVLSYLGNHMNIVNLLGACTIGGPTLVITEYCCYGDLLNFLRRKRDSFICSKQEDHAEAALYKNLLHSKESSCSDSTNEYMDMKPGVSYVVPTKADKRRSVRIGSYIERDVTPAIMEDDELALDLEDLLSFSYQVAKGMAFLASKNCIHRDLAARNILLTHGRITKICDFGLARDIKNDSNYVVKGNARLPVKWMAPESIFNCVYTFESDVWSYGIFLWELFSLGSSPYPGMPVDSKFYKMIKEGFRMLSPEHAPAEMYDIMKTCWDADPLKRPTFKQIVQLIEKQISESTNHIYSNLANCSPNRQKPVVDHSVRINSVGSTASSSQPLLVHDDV
# [7] = Half life in mouse at 2 mg/kg, iv administered as infusion or 2 mg/kg, po via gavage measured up to 24 hrs by LC-MS analysis; format: ADME, organism-based; conditions: in vivo
# [8] = Clearance in mouse at 2 mg/kg, iv administered as infusion or 2 mg/kg, po via gavage measured up to 24 hrs by LC-MS analysis; format: ADME, organism-based; conditions: in vivo
# [9] = target: T1, Interleukin-1 receptor-associated kinase 4 (Homo sapiens, UniProt Q9NWZ3); assay: Inhibition of IRAK4 in human PBMC assessed as inhibition of LTA-induced IL-6 production preincubated for 30 mins followed by LTA-stimulation and measured after 5 hrs by ELISA; format: cell-based
# T1 sequence (Q9NWZ3 whole entry): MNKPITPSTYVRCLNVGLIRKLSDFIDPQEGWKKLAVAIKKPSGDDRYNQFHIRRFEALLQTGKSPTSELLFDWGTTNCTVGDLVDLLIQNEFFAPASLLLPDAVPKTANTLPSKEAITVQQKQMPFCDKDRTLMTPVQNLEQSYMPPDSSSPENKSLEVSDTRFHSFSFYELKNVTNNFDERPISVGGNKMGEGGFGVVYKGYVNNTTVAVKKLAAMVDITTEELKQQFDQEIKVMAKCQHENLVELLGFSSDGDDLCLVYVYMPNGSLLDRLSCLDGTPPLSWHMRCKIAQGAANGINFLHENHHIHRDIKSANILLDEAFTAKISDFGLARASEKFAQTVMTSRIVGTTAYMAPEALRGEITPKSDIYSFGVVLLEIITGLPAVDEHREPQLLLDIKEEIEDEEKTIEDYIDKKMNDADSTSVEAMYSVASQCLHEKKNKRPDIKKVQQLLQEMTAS
# [10] = Stability in mouse liver microsomes assessed as parent compound remaining measured after 10 mins; format: ADME, Microsome; conditions: read-out: Stability
# [11] = organism: Homo sapiens; assay: Selectivity index, ratio of IC50 for N-terminal His6-tagged human full length recombinant LCK expressed in baculovirus infected Sf21 cells to IC50 for IRAK4 (unknown origin)
# [12] = AUC in mouse at 2 mg/kg, po via gavage measured up to 24 hrs by LC-MS analysis; format: ADME, organism-based; design: time < 24 hr, dose 2 mg/kg, route oral; conditions: in vivo
# [13] = target: T2, Mast/stem cell growth factor receptor Kit (Homo sapiens, UniProt P10721); assay: Inhibition of cKit (unknown origin) by functional based assay
# T2 sequence (P10721 whole entry): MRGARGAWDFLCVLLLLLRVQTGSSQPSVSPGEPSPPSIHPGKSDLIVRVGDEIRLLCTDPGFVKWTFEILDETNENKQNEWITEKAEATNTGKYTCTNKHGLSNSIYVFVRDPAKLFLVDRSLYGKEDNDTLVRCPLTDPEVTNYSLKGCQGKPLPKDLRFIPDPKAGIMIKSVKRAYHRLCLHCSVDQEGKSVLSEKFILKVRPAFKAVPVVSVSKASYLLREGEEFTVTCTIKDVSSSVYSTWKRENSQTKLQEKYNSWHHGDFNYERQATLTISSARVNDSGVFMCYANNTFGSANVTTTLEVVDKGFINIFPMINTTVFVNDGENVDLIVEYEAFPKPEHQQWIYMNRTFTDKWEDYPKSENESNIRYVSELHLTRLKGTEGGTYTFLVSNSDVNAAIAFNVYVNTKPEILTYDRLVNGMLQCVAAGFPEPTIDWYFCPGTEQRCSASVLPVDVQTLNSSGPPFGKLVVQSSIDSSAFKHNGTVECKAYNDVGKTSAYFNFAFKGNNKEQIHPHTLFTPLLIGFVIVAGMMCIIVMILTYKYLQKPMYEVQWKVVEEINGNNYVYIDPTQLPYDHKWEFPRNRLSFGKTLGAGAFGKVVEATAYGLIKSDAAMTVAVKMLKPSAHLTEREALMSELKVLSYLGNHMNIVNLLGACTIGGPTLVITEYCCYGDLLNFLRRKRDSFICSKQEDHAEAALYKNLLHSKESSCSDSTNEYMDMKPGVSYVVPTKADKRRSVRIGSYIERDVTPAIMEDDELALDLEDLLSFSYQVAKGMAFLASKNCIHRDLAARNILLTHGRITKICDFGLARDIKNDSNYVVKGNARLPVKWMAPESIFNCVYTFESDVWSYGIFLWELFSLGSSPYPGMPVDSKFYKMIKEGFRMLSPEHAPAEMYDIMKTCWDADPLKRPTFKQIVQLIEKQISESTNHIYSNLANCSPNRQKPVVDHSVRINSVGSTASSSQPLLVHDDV
# [14] = Stability in human liver microsomes assessed as parent compound remaining; format: ADME, Microsome
# [15] = target: Mast/stem cell growth factor receptor Kit (Homo sapiens, UniProt P10721, V559D/T670I); assay: Inhibition of recombinant human partial length cKit Val559Asp/Thr670Ile double mutant expressed in bacterial expression system
# Mast/stem cell growth factor receptor Kit (Homo sapiens, UniProt P10721, V559D/T670I), sequence (P10721 26-976 V559D/T670I limits assumed): as the sequence (P10721 26-976 V559D limits assumed) above, with T645I counted along it
# [16] = Oral bioavailability in mouse at 2 mg/kg administered via gavage measured up to 24 hrs by LC-MS analysis; format: ADME, organism-based; conditions: in vivo
# [17] = target: T3, Mitogen-activated protein kinase kinase kinase 7 (Homo sapiens, UniProt O43318); assay: Inhibition of human wild type partial length TAK1 (1 to 303 residues) expressed in mammalian expression system
# T3 sequence (O43318 whole entry): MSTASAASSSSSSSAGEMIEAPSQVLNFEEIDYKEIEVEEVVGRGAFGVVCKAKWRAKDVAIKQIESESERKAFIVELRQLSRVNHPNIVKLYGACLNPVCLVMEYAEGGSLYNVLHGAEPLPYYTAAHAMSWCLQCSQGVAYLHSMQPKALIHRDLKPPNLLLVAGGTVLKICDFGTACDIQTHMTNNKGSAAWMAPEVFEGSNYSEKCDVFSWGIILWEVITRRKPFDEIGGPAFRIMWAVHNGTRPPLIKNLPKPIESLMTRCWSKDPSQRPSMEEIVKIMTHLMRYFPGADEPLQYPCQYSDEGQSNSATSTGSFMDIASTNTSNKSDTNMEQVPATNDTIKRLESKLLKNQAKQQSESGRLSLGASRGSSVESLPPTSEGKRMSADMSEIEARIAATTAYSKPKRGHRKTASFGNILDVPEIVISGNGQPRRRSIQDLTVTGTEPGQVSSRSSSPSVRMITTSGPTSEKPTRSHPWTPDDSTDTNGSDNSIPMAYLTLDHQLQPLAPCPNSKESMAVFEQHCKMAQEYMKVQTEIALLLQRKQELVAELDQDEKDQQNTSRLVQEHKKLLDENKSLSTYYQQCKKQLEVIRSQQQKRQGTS
# [18] = target: T1, Interleukin-1 receptor-associated kinase 4; assay: Inhibition of IRAK4 (unknown origin) using FL-IPTSPITTTYFFFKKK peptide and ATP as substrate incubated for 60 mins by fluorescence based caliper assay
# [19] = target: T2, Mast/stem cell growth factor receptor Kit; assay: Inhibition of recombinant N-terminal GST-tagged human cKit (544 to end residues) expressed in baculovirus infected Sf21 cells
# [20] = target: T1, Interleukin-1 receptor-associated kinase 4; assay: Inhibition of IRAK4 in human whole blood assessed as inhibition of LTA-induced IL-6 production preincubated for 30 mins followed by LTA-stimulation and measured after 5 hrs by ELISA; format: tissue-based
# [21] = Volume of distribution at steady state in mouse at 2 mg/kg, iv administered as infusion or 10 mg/kg, po via gavage measured up to 24 hrs by LC-MS analysis; format: ADME, organism-based; conditions: in vivo, read-out: Vdss
# [22] = target: T4, Interleukin-1 receptor-associated kinase 4 (Mus musculus) (UniProt Q8R4K2); assay: In vivo Inhibition of IRAK4 in BALB/c mouse assessed as suppression of TLR2-mediated LTA-induced IL-6 level in serum at 50 mg/kg, po treated 30 mins prior to LTA-stimulation and measured after 90 mins by ELISA relative to control; format: functional, organism-based
# T4 sequence (whole entry): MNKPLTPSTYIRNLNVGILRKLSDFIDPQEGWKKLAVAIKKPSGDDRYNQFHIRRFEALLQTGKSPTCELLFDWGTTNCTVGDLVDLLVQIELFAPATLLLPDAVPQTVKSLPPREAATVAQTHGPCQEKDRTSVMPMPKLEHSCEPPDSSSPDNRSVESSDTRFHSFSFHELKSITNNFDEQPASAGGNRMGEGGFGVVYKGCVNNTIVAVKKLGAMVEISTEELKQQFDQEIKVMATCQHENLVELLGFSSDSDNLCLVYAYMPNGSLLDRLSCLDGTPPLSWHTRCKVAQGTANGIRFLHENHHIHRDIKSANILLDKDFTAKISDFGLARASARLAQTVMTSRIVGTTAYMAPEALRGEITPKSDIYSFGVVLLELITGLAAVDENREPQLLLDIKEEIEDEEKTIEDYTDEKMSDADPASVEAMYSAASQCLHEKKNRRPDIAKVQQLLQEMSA
# [23] = Time during which drug concentration exceeds IC50 for IRAK4 in mouse whole blood in mouse at 10 mg/kg, po; format: ADME, organism-based; conditions: in vivo
# [24] = target: T4, Interleukin-1 receptor-associated kinase 4 (Mus musculus); assay: In vivo Inhibition of IRAK4 in BALB/c mouse assessed as suppression of TLR2-mediated LTA-induced IL-6 level in serum at 10 mg/kg, po treated 30 mins prior to LTA-stimulation and measured after 90 mins by ELISA relative to control; format: functional, organism-based
# [25] = Clearance in mouse at 2 mg/kg, iv administered as infusion or 10 mg/kg, po via gavage measured up to 24 hrs by LC-MS analysis; format: ADME, organism-based; conditions: in vivo
# [26] = Drug uptake in LTA-treated BALB/c mouse serum at 10 mg/kg, po treated 30 mins prior to LTA-stimulation and measured after 90 mins by LC-MS analysis; format: ADME, organism-based; conditions: read-out: Drug uptake
# [27] = Oral bioavailability in mouse at 10 mg/kg administered via gavage measured up to 24 hrs by LC-MS analysis; format: ADME, organism-based; conditions: in vivo
# [28] = target: T4, Interleukin-1 receptor-associated kinase 4 (Mus musculus); assay: In vivo Inhibition of IRAK4 in BALB/c mouse assessed as suppression of TLR2-mediated LTA-induced IL-6 level in serum at 25 mg/kg, po treated 30 mins prior to LTA-stimulation and measured after 90 mins by ELISA relative to control; format: functional, organism-based
# [29] = AUC in mouse at 10 mg/kg, po via gavage measured up to 24 hrs by LC-MS analysis; format: ADME, organism-based; design: time < 24 hr, dose 10 mg/kg, route oral; conditions: in vivo
# [30] = Half life in mouse at 2 mg/kg, iv administered as infusion or 10 mg/kg, po via gavage measured up to 24 hrs by LC-MS analysis; format: ADME, organism-based; conditions: in vivo
# [31] = Drug uptake in LTA-treated BALB/c mouse serum at 25 mg/kg, po treated 30 mins prior to LTA-stimulation and measured after 90 mins by LC-MS analysis; format: ADME, organism-based; conditions: read-out: Drug uptake
# [32] = target: T5, Interleukin-1 receptor-associated kinase 4 (Mus musculus, UniProt Q8R4K2); assay: Inhibition of IRAK4 in mouse whole blood; format: tissue-based
# T5 sequence (Q8R4K2 whole entry): T4 sequence (whole entry)
# [33] = Drug uptake in LTA-treated BALB/c mouse serum at 50 mg/kg, po treated 30 mins prior to LTA-stimulation and measured after 90 mins by LC-MS analysis; format: ADME, organism-based; conditions: read-out: Drug uptake
compound,measurement,setting,value
CC(C)Nc1cc(Nc2ccn3nccc3n2)ncc1C(=O)NC[C@@H](F)C(C)(C)O,Papp A→B,[1],6.9 ×10⁻⁶ cm/s
same,AUC at 24 h,[2],2.4 µM·h
same,Ratio IC50,[3],8
same,Vd,[4],3 L/kg
same,IC50,[5],0.008 µM
same,inhibition (INH),[6],Active
same,half-life,[7],2 h
same,clearance,[8],33 mL/min/kg
same,IC50,[9],0.1 µM
same,remaining at 10 min,[10],89%
same,Ratio IC50,[11],130
same,AUC at 24 h,[12],0.9 µM·h
same,IC50,[13],0.17 µM
same,Stability,[14],100%
same,inhibition (INH),[15],Not Active
same,bioavailability,[16],36%
same,IC50,[17],0.19 µM
same,IC50,[18],0.0032 µM
same,IC50,[19],0.024 µM
same,IC50,[20],0.34 µM
CC(C)(O)[C@H](F)CNC(=O)c1cnc(Nc2ccc3ncsc3c2)cc1NC1CC1,Papp A→B,[1],8.1 ×10⁻⁶ cm/s
same,Vd,[21],2.1 L/kg
same,AUC at 24 h,[2],1.6 µM·h
same,inhibition,[22],99%
same,T>IC50,[23],<= 3 hr
same,inhibition,[24],50%
same,clearance,[25],47 mL/min/kg
same,IC50,[9],0.23 µM
same,remaining at 10 min,[10],89%
same,concentration at 1.5 h,[26],0.41 µM
same,bioavailability,[27],40%
same,Ratio IC50,[11],170
same,inhibition,[28],95%
same,AUC at 24 h,[29],3.3 µM·h
same,half-life,[30],2.2 h
same,Stability,[14],90%
same,concentration at 1.5 h,[31],4.5 µM
same,IC50,[32],0.24 µM
same,IC50,[18],0.0024 µM
same,concentration at 1.5 h,[33],9.6 µM
same,IC50,[20],0.81 µM
